Measurements: the supplement of paper PMC10307832

Legend:
Assay in all cases: relative viability (nuclei count vs DMSO), 5 days (fraction); higher = more cells survive
Selumetinib + Navitoclax = compound: Cn1cnc2c(F)c(Nc3ccc(Br)cc3Cl)c(C(=O)NOCCO)cc21 [Selumetinib] + CC1(C)CCC(c2ccc(Cl)cc2)=C(CN2CCN(c3ccc(C(=O)NS(=O)(=O)c4ccc(N[C@H](CCN5CCOCC5)CSc5ccccc5)c(S(=O)(=O)C(F)(F)F)c4)cc3)CC2)C1 [Navitoclax] (partner 0.5 µM)
Outline: (§1)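 Lung cancer cell lines were pin-tool dosed in 1536-well plates on the day after seeding, with either a lone drug or a fixed anchor-drug dose plus five library-drug doses (not always all listed) in √10 steps. Nuclei were counted on 4× images after 5 days. Relative viability is the ratio of treated-well to vehicle-well nuclei counts, with each value a median of duplicate plates.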

Venetoclax + Foretinib = compound: CC1(C)CCC(CN2CCN(c3ccc(C(=O)NS(=O)(=O)c4ccc(NCC5CCOCC5)c([N+](=O)[O-])c4)c(Oc4cnc5[nH]ccc5c4)c3)CC2)=C(c2ccc(Cl)cc2)C1 [Venetoclax] + COc1cc2c(Oc3ccc(NC(=O)C4(C(=O)Nc5ccc(F)cc5)CC4)cc3F)ccnc2cc1OCCCN1CCOCC1 [Foretinib] (partner 0.25 µM)
Outline: as §1

Venetoclax + Vorinostat = compound: CC1(C)CCC(CN2CCN(c3ccc(C(=O)NS(=O)(=O)c4ccc(NCC5CCOCC5)c([N+](=O)[O-])c4)c(Oc4cnc5[nH]ccc5c4)c3)CC2)=C(c2ccc(Cl)cc2)C1 [Venetoclax] + O=C(CCCCCCC(=O)Nc1ccccc1)NO [Vorinostat] (partner 1 µM)
Outline: as §1

Selumetinib + Trametinib = compound: Cn1cnc2c(F)c(Nc3ccc(Br)cc3Cl)c(C(=O)NOCCO)cc21 [Selumetinib] + CC(=O)Nc1cccc(-n2c(=O)n(C3CC3)c(=O)c3c(Nc4ccc(I)cc4F)n(C)c(=O)c(C)c32)c1 [Trametinib] (partner 0.02 µM)
Outline: as §1

Cell Line	relative viability (Selumetinib + Navitoclax; first compound 0.02 µM)	relative viability (Selumetinib + Navitoclax; first compound 0.06325 µM)	relative viability (Selumetinib + Navitoclax; first compound 0.2 µM)	relative viability (Selumetinib + Navitoclax; first compound 0.6325 µM)	relative viability (Venetoclax + Foretinib; first compound 0.01 µM)	relative viability (Venetoclax + Foretinib; first compound 0.03162 µM)	relative viability (Venetoclax + Foretinib; first compound 0.1 µM)	relative viability (Venetoclax + Foretinib; first compound 0.3162 µM)	relative viability (Venetoclax + Foretinib; first compound 1 µM)	relative viability (Venetoclax + Vorinostat; first compound 0.01 µM)	relative viability (Venetoclax + Vorinostat; first compound 0.03162 µM)	relative viability (Venetoclax + Vorinostat; first compound 0.1 µM)	relative viability (Venetoclax + Vorinostat; first compound 0.3162 µM)	relative viability (Venetoclax + Vorinostat; first compound 1 µM)	relative viability (Selumetinib + Trametinib; first compound 0.02 µM)	relative viability (Selumetinib + Trametinib; first compound 0.06325 µM)	relative viability (Selumetinib + Trametinib; first compound 0.2 µM)	relative viability (Selumetinib + Trametinib; first compound 0.6325 µM)
201T	1.17	1.14	1.17	1.15	1.2	1.04	0.976	0.98	1.06	0.858	1.02	0.917	0.975	0.947	0.777	0.698	0.723	0.735
A549	0.945	0.904	0.734	0.596	0.896	0.871	0.989	0.912	0.883									
A-427	1.02	0.868	0.76	0.68	0.957	1.2	0.944	1.24	1.11	0.834	0.863	0.857	0.849	0.879	0.731	0.781	0.812	0.794
ABC-1					0.867	1.22	0.976	0.961	0.922	1.04	1.24	1.13	1.32	0.939				
BEN	0.0655	0.0564	0.0657	0.0674	0.728	0.743	0.561	0.681	0.518	0.599	0.603	0.494	0.556	0.523	1.06	1.07	1.14	1
CAL-12T	1.28	1.36	0.986	0.921	1.17	1.14	1.13	1.18	1.05	0.684	0.782	0.683	0.865	0.56	0.282	0.343	0.285	0.298
COR-L23	1.05	0.926	1.06	1.04	0.884	1.03	1.04	0.866	0.883	0.428	0.439	0.39	0.433	0.392	0.555	0.469	0.586	0.511
COR-L 105	0.78	0.574	0.642	0.451	0.752	0.78	1.15	1	0.991	0.789	0.763	0.866	0.899	0.818	0.435	0.427	0.345	0.468
Calu-6	0.727	0.513	0.355	0.234	0.907	0.861	0.992	0.846	0.878									
ChaGo-K-1	0.878	0.956	0.911	1.23	1.02	0.944	0.889	0.916	0.949	0.879	0.759	0.546	0.694	0.737	0.908	0.891	0.897	0.92
EBC-1	0.225	0.19	0.193	0.138	0.115	0.0897	0.09	0.0924	0.0981									
EKVX	0.689	0.82	0.559	0.487	0.657	1.24	0.332	0.795	0.788	0.618	0.838	0.602	0.771	0.592	0.308	0.325	0.344	0.32
EMC-BAC-2	0.964	0.989	1.07	1.06	0.994	1.03	1.12	0.986	0.978	0.465	0.783	0.352	0.672	0.417	0.909	0.833	0.937	0.774
EPLC-272H	0.791	0.942	0.76	0.843	0.678	0.849	0.597	0.725	0.74	0.495	0.422	0.579	0.469	0.494	0.275	0.277	0.263	0.259
H3255	0.428	0.487	0.342	0.436	0.835	1	0.865	0.893	0.788	0.782	0.899	0.897	0.777	0.733	0.586	0.583	0.601	0.54
HARA	1.17	1.13	1.09	1.1	0.916	0.947	0.925	0.891	0.886	0.568	0.605	0.554	0.512	0.4	0.531	0.596	0.787	0.448
HCC-15	0.507	0.397	0.32	0.199	0.998	1.02	0.96	0.931	0.825	0.8	0.799	0.812	0.841	0.853	0.403	0.426	0.332	0.333
HCC-44	0.986	0.847	0.794	0.836						1.05	1.14	1.08	1.1	1	1.03	0.993	0.999	1.14
HCC-78	0.77	0.758	0.69	0.738	0.518	0.54	0.525	0.484	0.576	0.448	0.446	0.373	0.438	0.424	0.785	0.643	0.792	0.698

Cell Line	relative viability (Selumetinib + Navitoclax; first compound 0.02 µM)	relative viability (Selumetinib + Navitoclax; first compound 0.06325 µM)	relative viability (Selumetinib + Navitoclax; first compound 0.2 µM)	relative viability (Selumetinib + Navitoclax; first compound 0.6325 µM)	relative viability (Venetoclax + Foretinib; first compound 0.01 µM)	relative viability (Venetoclax + Foretinib; first compound 0.03162 µM)	relative viability (Venetoclax + Foretinib; first compound 0.1 µM)	relative viability (Venetoclax + Foretinib; first compound 0.3162 µM)	relative viability (Venetoclax + Foretinib; first compound 1 µM)	relative viability (Venetoclax + Vorinostat; first compound 0.01 µM)	relative viability (Venetoclax + Vorinostat; first compound 0.03162 µM)	relative viability (Venetoclax + Vorinostat; first compound 0.1 µM)	relative viability (Venetoclax + Vorinostat; first compound 0.3162 µM)	relative viability (Venetoclax + Vorinostat; first compound 1 µM)	relative viability (Selumetinib + Trametinib; first compound 0.02 µM)	relative viability (Selumetinib + Trametinib; first compound 0.06325 µM)	relative viability (Selumetinib + Trametinib; first compound 0.2 µM)	relative viability (Selumetinib + Trametinib; first compound 0.6325 µM)
HCC-366	1.11	0.954	0.917	0.757	0.86	1.04	0.872	0.963	0.974	0.311	0.395	0.273	0.346	0.312	0.365	0.316	0.332	0.329
HCC-827	0.978	1.04	1.03	1.04	0.966	1.03	0.971	0.98	0.916	0.848	0.958	0.83	0.892	0.755	0.528	0.554	0.541	0.549
HOP-62	1.01	0.997	0.929	0.517	1.07	1.16	0.997	1.08	1.03	0.578	0.572	0.552	0.667	0.568	0.372	0.358	0.404	0.332
IA-LM	0.566	0.398	0.284	0.315	1.02	1.17	1.13	1.14	0.977	0.673	1.01	0.8	0.958	1				
LC-2-ad	0.4	0.359	0.442	0.46	1.04	0.95	0.938	0.947	0.904	0.721	0.729	0.641	0.69	0.686	0.954	0.88	0.822	0.9
LCLC-103H					0.758	0.782	0.698	0.767	0.801	0.866	0.92	0.648	0.825	0.737	0.635	0.707	0.66	0.672
NCI-H358					0.69	0.66	0.694	0.695	0.638	0.794	0.882	0.67	0.697	0.626	0.125	0.134	0.121	0.11
NCI-H522										1	0.849	0.96	0.839	0.896	0.859	0.727	0.757	0.888
NCI-H650					0.98	0.964	1.06	0.996	1.01	0.42	0.413	0.471	0.462	0.391	0.963	1.03	0.979	0.866
NCI-H661					0.978	1.01	1.02	0.996	0.888	0.741	0.804	0.692	0.893	0.722	0.585	0.575	0.567	0.537
NCI-H1299	1.02	1.09	1.05	0.899	1.07	1.11	1.1	1.07	1.03									
NCI-H1563					0.922	0.968	0.961	1.05	0.94									
NCI-H1623					0.897	0.906	0.893	0.836	0.858									
NCI-H1648											0.397	0.494	0.451	0.477		0.503	0.443	0.499
NCI-H1703	1.12	0.875	1.29	1.1	0.345		0.397	0.328	0.367									
NCI-H1792	0.741	0.641	0.522	0.533											0.439	0.521	0.452	0.402
NCI-H2342					1	1.23	1.03	1.01	1.13	0.667	0.823	0.739	0.683	0.802	0.838	0.835	0.789	0.975
SW 900					0.745	1.05	0.823	0.916	1.16	0.485	0.663	0.545	0.617	0.486	0.68	0.764	0.875	0.675
